Test results reported in PMC9504695, “Insight into the Formation of Cocrystal and Salt of Tenoxicam from the Isomer and Conformation” (Pharmaceutics, 2022).
Read-outs that look alike come from different tables or passages of the source.

Tests used:
[1] = cited from earlier work
[2] = pKa of TNX and cocrystal coformers (values from SciFinder); conditions: between CCF and TNX (pKa of TNX 4.50)
[3] = clinical dosage forms; cited from earlier work
[4] = low solubility and high permeability; cited from earlier work
[5] = Dissolution measurements (basket method, 37 °C, HPLC); type: physicochemical; conditions: pH 1.2 and 6.8, 37 °C
Protocol: Dissolution measurements were investigated by the basket method by using an RC12AD dissolution instrument (Tianjin Tianda Tianfa Technology Co., Ltd., Tianjin, China). According to a previous study, it is necessary that all of the particle sizes of TNX, cocrystals, and salt are at the same level when the same operation is performed on these samples. To do so, the powder samples of TNX, two cocrystals, and one salt were milled and sieved through 100-mesh sieves to minimize the size influence on the results. The temperature and rotation speed were set to 37 °C and 160 r·min^−1. The dissolution mediums were water (pH 7.0), phosphate buffer (pH 6.8), acetate buffer (pH 4.5), and hydrochloric buffer (pH 1.2). Accurately weighed samples (containing 60 mg of TNX) were each added to 900 mL of dissolution mediums. The sampling points were at 5, 10, 15, 20, 30, 45, 60, 90, 120, 180, 240, 360, 480, 600, and 720 min. The concentrations of TNX were quantified on an Agilent 1200 Series HPLC system (Agilent Technologies, Santa Clara, USA) with a Sil-Green C18 HPLC column (4.6 mm × 250 mm, 5μm) and a UV detector at a wavelength of 257 nm. The mobile phase was methanol–0.04% formic acid aqueous solution (61:39). The flow rate and column temperature were set to 1 mL·min^−1 and 25 °C.

| Compound | pKa Value ([1]; pKa of the CCF, ref SciFinder) | ΔpKa Value [2] | further results |
| --- | --- | --- | --- |
| O=C(O)c1c(O)cccc1O [2,6-Dihydroxybenzoic acid (DHB), 2,6-Dihydroxybenzoic acid] | 1.30 | 3.20 | – |
| O=C(O)c1cc([N+](=O)[O-])cc([N+](=O)[O-])c1 [3,5-Dinitrobenzoic acid (DNB), 3,5-Dinitrobenzoic acid] | 2.77 | 1.73 | – |
| O=C(O)c1ccc(O)cc1 [4-Hydroxybenzoic acid (HBA), 4-Hydroxybenzoic acid] | – | 0.07 | – |
| O=C(O)CO [Glycolic acid (GLA), Glycolic acid] | 3.74 | 0.76 | – |
| O=C(O)/C=C\C(=O)O [Maleic acid (MLA), Maleic acid] | 2.39 | 2.11 | – |
| O=C(O)C(=O)O [Oxalic acid (OLA), Oxalic acid] | 1.38 | – | – |
| Oc1ccccc1O [Pyrocatechol (PRC), Pyrocatechol] | 9.50 | 5.00 | – |
| Oc1cccc(O)c1O [Pyrogallol (PRG), Pyrogallol] | 9.28 | 4.78 | – |
| Oc1cccc(O)c1 [Resorcinol (RSC), Resorcinol] | 9.45 | 4.95 | – |
| O=C1NS(=O)(=O)c2ccccc21 [Saccharin (SCR), Saccharin] | 1.60 | – | – |
| O=C(O)CCC(=O)O [Succinic acid (SNA), Succinic acid] | – | 0.26 | – |
| CN1C(C(=O)Nc2ccccn2)=C(O)c2sccc2S1(=O)=O [TNX, Tenoxicam] | – | – | pKa ([1]; TNX, source not given): 4.50; half-life period [3]: 70~90 h; BCS class [4]: class II |
| CN1C(C(=O)Nc2ccccn2)=C(O)c2sccc2S1(=O)=O.Nc1ccc(C(=O)O)c(O)c1 [TNX-PAS] | – | – | solubility in dissolution measurements, comparison [5]: slightly higher than that of TNX |
| Nc1ccc(C(=O)O)c(O)c1 [p-Aminosalicylic acid (PAS), p-Aminosalicylic acid] | – | 0.92 | pKa Value [1]: 3.58 |
| O=C(O)CCC(=O)C(=O)O [α-Ketoglutaric acid (KLA), α-Ketoglutaric acid] | – | 2.12 | – |
